Results taken from patent US10358434B2, “2-(3-pyridinyl)-1H-benzimidazole derivative compound and medicament containing same” (NIHON MEDI-PHYSICS CO., LTD., priority 2014, dated 2019).

Legend:
[1] = tested on: human adrenal gland section expressing aldosterone-producing adenoma; assay: In vitro autoradiography using human adrenal adenoma; assay type: binding; conditions: section of FIG. 17(b)
Procedure, shortened: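 Autoradiography readout: PSL in equal-sized ROIs over adenoma (B2) and normal adrenal cortex (B1), expressed as B2/B1 and decay-corrected using half-life, applied activity and plate contact time. Tissue was surgically excised human adrenal, frozen and cut at 7 μm, incubated 10 min with 5-33 kBq/mL tracer in BSA-containing PBS, then imaged after 16-20 h exposure.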

[2] = In vivo kinetics experiment (radioactivity distribution); design: species or system Wistar male rat; conditions: rat i.v., mean ± SD
Procedure, shortened: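 Tissue radioactivity (% ID/g) and adrenal-to-blood, liver, kidney, small intestine, muscle and fat ratios determined at 10, 30 and 60 min post-dose. Tracers (approximately 1 to 3.7 MBq, saline with 1 w/v % ascorbic acid) injected i.v. into caudal vein of anesthetized 9-week male Wistar rats; organs excised, weighed, counted.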

[3] = Plasma stability evaluation (TLC analysis); assay type: in vitro ADME; conditions: 37° C., 60 minutes, TLC analysis
Procedure, shortened: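 TLC analysis, using each compound's synthesis conditions, judged stability after methanol was added and samples were centrifuged to remove protein. Beforehand, each tracer had spent 60 minutes at 37° C in pooled heparinized normal human plasma.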

Question: Which B2/B1 accumulation ratio [1] does the source give for `FCCn1c(-c2cncc(Cn3ccnc3)c2)nc2ccc([123I])cc21` [[^123I] 604, 1-(2-Fluoroethyl)-2-[5-{(imidazol-1-yl)methyl}pyridin-3-yl]-6-[^123I]iodobenzimidazole] here?
Answer: 1.93

Question: What about the “B2 (PSL value, aldosterone-producing adenoma)” value ([1]; site 71b) of the same molecule?
Answer: 3493

Question: And the “B1 (PSL value, normal adrenal cortex)” value ([1]; site 72b)?
Answer: 1813

Question: What about the “Adrenal gland/blood ratio of radioactivity accumulation” value (from here on “Adrenal gland/blood ratio”) ([2]; 10 min after administration) of the same molecule?
Answer: 75.41 ± 30.78

Question: What about the “Adrenal gland/fat ratio of radioactivity accumulation” value (from here on “Adrenal gland/fat ratio”) ([2]; 10 min after administration) of the same molecule?
Answer: 92.23 ± 49.88

Question: And the “Adrenal gland/kidney ratio of radioactivity accumulation” value (“Adrenal gland/kidney ratio” below) ([2]; 10 min after administration)?
Answer: 4.89 ± 2.15

Question: What about the “Adrenal gland/liver ratio of radioactivity accumulation” value (from here on “Adrenal gland/liver ratio”) ([2]; 10 min after administration) of the same molecule?
Answer: 2.48 ± 1.00

Question: What about the “Adrenal gland/muscle ratio of radioactivity accumulation” value (from here on “Adrenal gland/muscle ratio”) ([2]; 10 min after administration) of the same molecule?
Answer: 67.00 ± 51.23

Question: What about the “Adrenal gland/small intestine ratio of radioactivity accumulation” value (shortened to “Adrenal gland/small intestine ratio”) ([2]; 10 min after administration) of the same molecule?
Answer: 7.85 ± 3.21

Question: What about the “Radioactivity distribution Adrenal gland” value ([2]; 10 min after administration) of the same molecule?
Answer: 10.24 ± 4.48 % ID/g

Question: What about the “Radioactivity distribution Bladder (including urine)” value (“Radioactivity distribution Bladder” for short) ([2]; 10 min after administration) of the same molecule?
Answer: 0.43 ± 0.13 % ID/g

Question: What about the “Radioactivity distribution Blood” value ([2]; 10 min after administration) of the same molecule?
Answer: 0.13 ± 0.01 % ID/g

Question: And the “Radioactivity distribution Fat” value ([2]; 10 min after administration)?
Answer: 0.11 ± 0.01 % ID/g

Question: And the “Radioactivity distribution Femur” value ([2]; 10 min after administration)?
Answer: 0.85 ± 0.40 % ID/g

Question: And the “Radioactivity distribution Heart” value ([2]; 10 min after administration)?
Answer: 0.65 ± 0.09 % ID/g

Question: And the “Radioactivity distribution Kidney” value ([2]; 10 min after administration)?
Answer: 2.09 ± 0.09 % ID/g

Question: What about the “Radioactivity distribution Large intestine” value ([2]; 10 min after administration) of the same molecule?
Answer: 0.11 ± 0.01 % ID/g

Question: What about the “Radioactivity distribution Liver” value ([2]; 10 min after administration) of the same molecule?
Answer: 4.09 ± 0.45 % ID/g

Question: And the “Radioactivity distribution Lung” value ([2]; 10 min after administration)?
Answer: 0.98 ± 0.16 % ID/g

Question: What about the “Radioactivity distribution Muscle (lower limbs)” value ([2]; 10 min after administration) of the same molecule?
Answer: 0.18 ± 0.05 % ID/g

Question: And the “Radioactivity distribution Remaining whole body” value ([2]; 10 min after administration)?
Answer: 0.24 ± 0.01 % ID/g

Question: What about the “Radioactivity distribution Small intestine” value ([2]; 10 min after administration) of the same molecule?
Answer: 1.29 ± 0.12 % ID/g

Question: What about the “Radioactivity distribution Spleen” value ([2]; 10 min after administration) of the same molecule?
Answer: 5.59 ± 1.78 % ID/g

Question: What about the “Radioactivity distribution Stomach” value ([2]; 10 min after administration) of the same molecule?
Answer: 0.66 ± 0.34 % ID/g

Question: What about the “Radioactivity distribution Testis” value ([2]; 10 min after administration) of the same molecule?
Answer: 0.04 ± 0.01 % ID/g

Question: And the “Radioactivity distribution Whole brain” value ([2]; 10 min after administration)?
Answer: 0.01 ± 0.00 % ID/g

Question: And the “Adrenal gland/blood ratio” value ([2]; 30 min after administration)?
Answer: 170.18 ± 126.19

Question: What about the “Adrenal gland/fat ratio” value ([2]; 30 min after administration) of the same molecule?
Answer: 156.19 ± 135.29

Question: And the “Adrenal gland/kidney ratio” value ([2]; 30 min after administration)?
Answer: 9.69 ± 6.36

Question: What about the “Adrenal gland/liver ratio” value ([2]; 30 min after administration) of the same molecule?
Answer: 8.55 ± 5.73

Question: What about the “Adrenal gland/muscle ratio” value ([2]; 30 min after administration) of the same molecule?
Answer: 100.20 ± 67.99

Question: And the “Adrenal gland/small intestine ratio” value ([2]; 30 min after administration)?
Answer: 4.37 ± 1.61

Question: What about the “Radioactivity distribution Adrenal gland” value ([2]; 30 min after administration) of the same molecule?
Answer: 15.46 ± 8.64 % ID/g

Question: What about the “Radioactivity distribution Bladder” value ([2]; 30 min after administration) of the same molecule?
Answer: 1.13 ± 0.19 % ID/g

Question: What about the “Radioactivity distribution Blood” value ([2]; 30 min after administration) of the same molecule?
Answer: 0.10 ± 0.02 % ID/g

Question: What about the “Radioactivity distribution Fat” value ([2]; 30 min after administration) of the same molecule?
Answer: 0.12 ± 0.03 % ID/g

Question: And the “Radioactivity distribution Femur” value ([2]; 30 min after administration)?
Answer: 0.83 ± 0.03 % ID/g

Question: What about the “Radioactivity distribution Heart” value ([2]; 30 min after administration) of the same molecule?
Answer: 0.64 ± 0.04 % ID/g

Question: And the “Radioactivity distribution Kidney” value ([2]; 30 min after administration)?
Answer: 1.65 ± 0.27 % ID/g

Question: What about the “Radioactivity distribution Large intestine” value ([2]; 30 min after administration) of the same molecule?
Answer: 0.14 ± 0.02 % ID/g

Question: What about the “Radioactivity distribution Liver” value ([2]; 30 min after administration) of the same molecule?
Answer: 1.89 ± 0.21 % ID/g

Question: And the “Radioactivity distribution Lung” value ([2]; 30 min after administration)?
Answer: 0.97 ± 0.10 % ID/g

Question: And the “Radioactivity distribution Muscle (lower limbs)” value ([2]; 30 min after administration)?
Answer: 0.16 ± 0.02 % ID/g

Question: And the “Radioactivity distribution Remaining whole body” value ([2]; 30 min after administration)?
Answer: 0.27 ± 0.01 % ID/g

Question: And the “Radioactivity distribution Small intestine” value ([2]; 30 min after administration)?
Answer: 3.40 ± 0.80 % ID/g

Question: And the “Radioactivity distribution Spleen” value ([2]; 30 min after administration)?
Answer: 6.71 ± 0.48 % ID/g

Question: And the “Radioactivity distribution Stomach” value ([2]; 30 min after administration)?
Answer: 0.61 ± 0.14 % ID/g

Question: What about the “Radioactivity distribution Testis” value ([2]; 30 min after administration) of the same molecule?
Answer: 0.05 ± 0.01 % ID/g

Question: What about the “Radioactivity distribution Whole brain” value ([2]; 30 min after administration) of the same molecule?
Answer: 0.01 ± 0.00 % ID/g

Question: What about the “Adrenal gland/blood ratio” value ([2]; 60 min after administration) of the same molecule?
Answer: 329.57 ± 56.14

Question: And the “Adrenal gland/fat ratio” value ([2]; 60 min after administration)?
Answer: 161.46 ± 40.00

Question: What about the “Adrenal gland/kidney ratio” value ([2]; 60 min after administration) of the same molecule?
Answer: 15.22 ± 1.37

Question: And the “Adrenal gland/liver ratio” value ([2]; 60 min after administration)?
Answer: 19.61 ± 2.12

Question: And the “Adrenal gland/muscle ratio” value ([2]; 60 min after administration)?
Answer: 130.19 ± 7.34

Question: And the “Adrenal gland/small intestine ratio” value ([2]; 60 min after administration)?
Answer: 5.02 ± 1.64

Question: And the “Radioactivity distribution Adrenal gland” value ([2]; 60 min after administration)?
Answer: 18.65 ± 1.67 % ID/g

Question: And the “Radioactivity distribution Bladder” value ([2]; 60 min after administration)?
Answer: 3.04 ± 1.32 % ID/g

Question: And the “Radioactivity distribution Blood” value ([2]; 60 min after administration)?
Answer: 0.06 ± 0.01 % ID/g

Question: And the “Radioactivity distribution Fat” value ([2]; 60 min after administration)?
Answer: 0.12 ± 0.04 % ID/g

Question: What about the “Radioactivity distribution Femur” value ([2]; 60 min after administration) of the same molecule?
Answer: 0.90 ± 0.10 % ID/g

Question: What about the “Radioactivity distribution Heart” value ([2]; 60 min after administration) of the same molecule?
Answer: 0.56 ± 0.01 % ID/g

Question: What about the “Radioactivity distribution Kidney” value ([2]; 60 min after administration) of the same molecule?
Answer: 1.23 ± 0.01 % ID/g

Question: And the “Radioactivity distribution Large intestine” value ([2]; 60 min after administration)?
Answer: 0.55 ± 0.52 % ID/g

Question: What about the “Radioactivity distribution Liver” value ([2]; 60 min after administration) of the same molecule?
Answer: 0.96 ± 0.10 % ID/g

Question: What about the “Radioactivity distribution Lung” value ([2]; 60 min after administration) of the same molecule?
Answer: 0.78 ± 0.03 % ID/g

Question: What about the “Radioactivity distribution Muscle (lower limbs)” value ([2]; 60 min after administration) of the same molecule?
Answer: 0.14 ± 0.01 % ID/g

Question: And the “Radioactivity distribution Remaining whole body” value ([2]; 60 min after administration)?
Answer: 0.28 ± 0.04 % ID/g

Question: And the “Radioactivity distribution Small intestine” value ([2]; 60 min after administration)?
Answer: 3.98 ± 1.32 % ID/g

Question: What about the “Radioactivity distribution Spleen” value ([2]; 60 min after administration) of the same molecule?
Answer: 5.62 ± 1.11 % ID/g

Question: And the “Radioactivity distribution Stomach” value ([2]; 60 min after administration)?
Answer: 0.89 ± 0.21 % ID/g

Question: What about the “Radioactivity distribution Testis” value ([2]; 60 min after administration) of the same molecule?
Answer: 0.05 ± 0.01 % ID/g

Question: And the “Radioactivity distribution Whole brain” value ([2]; 60 min after administration)?
Answer: 0.01 ± 0.00 % ID/g

Question: What about the “Radiochemical purity after incubation in human plasma” value [3] of the same molecule?
Answer: 85%
